For the first experiment, the target named is CDK2 (human) (UniProt P24941). Kind of experiment: Cell-Based Assay. The settings on record: hdf-3.
In general, IC50 refers to the concentration that gives 50% inhibition. Low readings indicate greater potency, high ones weaker potency. Turning to `NS(=O)(=O)c1ccc(NN=C2C(=O)Nc3ccc(-c4cnco4)cc32)cc1`, the IC50 worked out at 350 nM.

Still in this experiment, the particulars now being: mda-mb-468.
As to `CNS(=O)(=O)Cc1ccc(NN=C2C(=O)Nc3cc(C)c(O)c(C)c32)cc1`, the IC50 came to 300 nM. Same read-out and setting: in the case of `NS(=O)(=O)c1ccc(NN=C2C(=O)Nc3ccc(-c4cnco4)cc32)cc1` it was 350 nM; in that of `CN(C)S(=O)(=O)c1ccc(N/C=C2\C(=O)Nc3ccc(-c4cnco4)cc32)cc1`, greater than 5000 nM.

The experiment is the same for the next values; noted with them: rko.
As for `NS(=O)(=O)c1ccc(NN=C2C(=O)Nc3ccc(-c4cnco4)cc32)cc1`, the half-maximal inhibitory concentration (IC50) stood at 350 nM.

For the next experiment, the target named is CDK2 (human) (UniProt P24941). The experiment can be described thus: Enzyme Assay.
Settings: not given
`O=C1Nc2ncc(-c3ccco3)cc2/C1=C/Nc1ccc2cn[nH]c2c1`: the half-inhibitory concentration (IC50) worked out at 5500 nM.

`NS(=O)(=O)c1ccc(N/C=C2\C(=O)Nc3ncc(-c4ccco4)cc32)cc1` came in with an IC50 of 55 nM. On the same count and under the same terms, then `O=C1Nc2ccc3ccncc3c2/C1=C/Nc1ccc(N2CCOCC2)cc1`, with greater than 100 nM. Same read-out and setting: then `NS(=O)(=O)c1ccc(N/C=C2\C(=O)Nc3nc(Cl)ccc32)cc1`, with 550 nM; and `CCOC(=O)c1cnc2c(c1)/C(=C/Nc1ccc3ncccc3c1)C(=O)N2`, with 550 nM. Still for that read-out and setting: then `NS(=O)(=O)c1ccc(N/C=C2\C(=O)Nc3cnccc32)cc1`, with 55 nM; and `NS(=O)(=O)c1ccc(N/C=C2/C(=O)Nc3ccncc32)cc1.NS(=O)(=O)c1ccc(N/C=C2\C(=O)Nc3ccncc32)cc1`, with 55 nM.

In the case of `NS(=O)(=O)c1ccc(N/C=C2\C(=O)Nc3ncc(Br)cc32)cc1`, the concentration for half-maximal inhibition (IC50) is 55 nM. The same measure, in the same setting: in the case of `Cc1cc(=O)[nH]n1-c1ccc(N/C=C2\C(=O)Nc3ccc4ncsc4c32)cc1` it was 30 nM; in that of `O=C1Nc2ccc3ccncc3c2/C1=C/Nc1ccc(CCO)cc1`, 75 nM; in that of `NS(=O)(=O)c1ccc(N/C=C2\C(=O)Nc3ncccc32)cc1`, 550 nM. On the same count and under the same terms, in the case of `NC(=O)c1ccc(N/C=C2\C(=O)Nc3ccc4ncsc4c32)cc1` it was 75 nM. Still for that read-out and setting: in the case of `O=C1Nc2ccc3ccncc3c2/C1=C/Nc1ccc(Cc2ccncc2)cc1` it was 30 nM; in that of `O=C1Nc2ncc(Br)cc2/C1=C/Nc1ccc2cn[nH]c2c1`, 55 nM. Take `O=C1Nc2ncc(Br)cc2/C1=C/Nc1ccc2ncccc2c1`: the IC50 is 55 nM.

Consider `O=C1Nc2nc(Cl)ccc2/C1=C/Nc1ccc2cn[nH]c2c1`, for which the IC50 came to 550 nM. Still for that read-out and setting: in the case of `CCOC(=O)c1cnc2c(c1)/C(=C/Nc1ccc(S(N)(=O)=O)cc1)C(=O)N2` it was 55 nM; in that of `O=C1Nc2ncc(-c3ccsc3)cc2/C1=C/Nc1ccc2cn[nH]c2c1`, 550 nM. Take `CCOC(=O)c1cnc2c(c1)/C(=C/Nc1ccc3cn[nH]c3c1)C(=O)N2`: the 50% inhibitory concentration (IC50) worked out at 55 nM. The same measure, in the same setting: then `NS(=O)(=O)c1ccc(N/C=C2\C(=O)Nc3ncc(-c4ccccc4)cc32)cc1`, with 5500 nM; and `NS(=O)(=O)c1ccc(N/C=C2\C(=O)Nc3ncc(-c4ccsc4)cc32)cc1`, with 550 nM.

Another experiment deals with CDK2 (human) (UniProt P24941). Kind of experiment: Cell-Based Assay. The settings on record: rko.
In turn, `NS(=O)(=O)c1ccc(NN=C2C(=O)Nc3ccc(-c4cnco4)cc32)cc1` showed an IC50 of 350 nM.
